Results on two compounds are retold here after ChEMBL document CHEMBL1127283, “Structure of maesaquinone” (Bioorg Med Chem Lett, 1994).

≈ marks a conversion by molar mass, not a printed value.

The test system of assay [1] is HeLa. The experiment in a line: Compound was tested for its cytotoxicity against HeLa epithelioid cervix carcinoma cells. It is filed as functional, cell-based. The conditions noted are these: Homo sapiens.
The subject of another assay is BT-20. Description: Compound was tested for its cytotoxicity against BT-20 breast carcinoma cells. Format: functional, cell-based. The conditions noted are these: Homo sapiens.
For assay [2], the target named is T1, Polyunsaturated fatty acid 5-lipoxygenase (Homo sapiens) (UniProt P09917).
T1 sequence (whole entry): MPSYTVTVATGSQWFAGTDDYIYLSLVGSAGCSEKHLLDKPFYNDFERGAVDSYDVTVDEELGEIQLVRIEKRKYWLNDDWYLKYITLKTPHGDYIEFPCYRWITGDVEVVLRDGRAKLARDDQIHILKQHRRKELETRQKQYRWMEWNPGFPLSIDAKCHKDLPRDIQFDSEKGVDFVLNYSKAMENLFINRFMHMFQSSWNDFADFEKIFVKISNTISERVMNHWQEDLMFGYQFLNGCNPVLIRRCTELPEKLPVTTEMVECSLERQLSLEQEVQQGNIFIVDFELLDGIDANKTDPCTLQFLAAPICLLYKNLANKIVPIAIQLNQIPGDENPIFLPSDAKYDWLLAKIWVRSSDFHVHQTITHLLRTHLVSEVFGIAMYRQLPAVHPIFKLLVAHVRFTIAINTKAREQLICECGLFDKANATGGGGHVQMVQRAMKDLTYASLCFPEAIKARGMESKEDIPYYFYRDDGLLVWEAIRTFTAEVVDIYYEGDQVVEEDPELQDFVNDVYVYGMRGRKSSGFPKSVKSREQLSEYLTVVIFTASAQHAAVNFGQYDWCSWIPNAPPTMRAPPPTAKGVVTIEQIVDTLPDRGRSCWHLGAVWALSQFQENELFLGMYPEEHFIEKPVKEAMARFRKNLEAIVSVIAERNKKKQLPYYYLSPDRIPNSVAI
The experiment in a line: Compound was tested for its inhibitory activity against 5-lipoxygenase.

The subject of assay [3] is HeLa. Description: Compound was tested for its cytotoxicity against HeLa epithelioid cervix carcinoma cells. Conditions: Homo sapiens. It is filed as functional, cell-based.

What is called IC50 is the concentration needed to halve the response being measured. Low readings indicate inhibition by little substance, high ones a need for much substance. For the compound `CCCC/C=C\CCCCCCCCCC1=C(O)C(O)=C(C)C(=O)C1=O`, the IC50 with HeLa [1] is 2.05 µg/mL (≈ 5.66 µM); in the assay on BT-20, 1.58 µg/mL (≈ 4.36 µM).
As usually defined, the IC90 is the concentration needed for an effect of 90%. Compound `CCCC/C=C\CCCCCCCCCC1=C(O)C(OC)=CC(=O)C1=O` registered an IC90 in assay [2] of 3 µM. Further, the IC50 with BT-20 was 1.8 µg/mL (≈ 4.97 µM); in the assay with HeLa [3] it was 1.25 µg/mL (≈ 3.45 µM).
